One series relates to grape. Put plainly: SERS depth mapping of pesticide and AuNPs penetration into grapes (Example 2). The note with it: 100 mg/L.
In series [1] the test system is spinach leaves. Kind of series: SERS depth mapping of pesticide and AuNPs penetration into spinach leaves (Example 2). The conditions noted are these: 100 mg/L.
Experimental: (§1) Organic grapes and spinach leaves were carefully hand washed as described above for apples before experiment to remove surface contaminants. In order to study pesticide penetration in grapes, the same two washing methods were used as presented above for apples. Grapes treated with each pesticides solution (100 mg/L) were washed with either a 5% acetic acid or 1% NaHCO3 solution. Washing effects were evaluated using the SERS methods and the penetration behaviors of each pesticide were monitored as for apple above. Pesticides penetration experiments on spinach leaves were carried out as described above for apple and grape.
(§2) A DXR Raman microscope (Thermo Fisher Scientific, Madison, Wis., USA) with a 780 nm laser and a 20× long distance microscope objective was used in this study. Each sample was scanned from 400 to 2000 cm^−1 for a 2 s exposure time. For measuring pesticides on both gold slides and fresh produce surfaces, Raman mapping was carried out using a 50 μm slit aperture and 5 mW laser power to maximize the signals. Ten discrete locations were randomly chosen on each sample for analysis. For penetration studies, SERS depth mapping images were obtained using a 50 μm pinhole aperture and 1 mW laser power to control the confocal depths using a scanning depth of 300 μm. Each depth scanning vertical to produce surface was randomly selected in apple peel, grape peel or spinach leaf with an area of 100 μm×300 μm. The step size of the depth mapping was 20 μm and one image contained 75 scanning spots. Raman images were integrated based on the characteristic peaks in the pesticide spectra using the Atlμs Function in the OMINCS software (Thermo Fisher Scientific). Statistical analysis was conducted using SPSS Statistics 22 software (IBM Corporation, Armonk, N.Y., USA). The differences among results were calculated using an analysis of variance (ANOVA) and a post hoc Duncan test with a confidence level of 95%.
For a further series, the system named is apple. Put plainly: SERS depth mapping of pesticide and AuNPs penetration into apples (Example 2). The note with it: 100 mg/L.
In another series the test system is harvested basil leaves. Kind of series: SERS depth mapping of pesticide and AuNPs penetration into harvested basil leaves (Example 3). The note with it: 10 mg/L.
The subject of series [2] is spinach leaves. Put plainly: SERS depth mapping of pesticide and AuNPs penetration into spinach leaves (Example 1). The note with it: 20 ppm.
Experimental: These leaves were carefully washed with ultrapure water and dried before experimentation. […] A volume of 50 μL of each solution was then mixed with 50 μL of a 250 ppm 50 nm AuNPs solution for 1 min. at room temperature to ensure complete pesticide complexation with AuNPs through Au-thiol bond. 5 μL of each of the pre-prepared pesticide solution were then pipetted onto spinach leaves situated on a glass slide and air-dried in a fume hood for 30 min. […] All controls were air-dried in a fume hood as above. For evaluation of feasibility of Raman detection of pesticides on spinach leaves, 5 μL of the pre-prepared pesticide solution and AuNPs solution without pesticide were also dropped onto a gold slide and dried for 30 min in a hood for comparisons. Raman spectra were collected individually for all treatments.
After 1 h, bright field light scattering images and SERS mapping images were collected from all samples.
In order to remove any interference caused by pesticide residues on the spinach leaf surface, different washing methods were investigated. […] Then each leaf was immersed into 20 mL of deionized water or 20 mL of a 10 mg/mL of NaHCO3 solution. For the water washing method, each leaf was submerged into water for either 10 or 60 min. For the NaHCO3 washing method, each leaf was submerged into the NaHCO3 solution for 30, 60, 90, or 120 s and then gently rinsed with 500 mL of deionized water for 30 s, respectively. All washed leaf samples were air-dried at room temperature for 30 min before being treated with AuNPs. […]
After 1 h for drying, SERS depth mapping images were obtained using the confocal Raman instrument. Similar samples without washing were likewise measured for comparison purposes.
To study accurate systemic pesticide penetration, different washing methods were also used to remove surface thiabendazole residues. […] Surface thiabendazole residues were then analyzed by pipetting 5 μL of a 250 ppm AuNP solution onto the same leaf area where thiabendazole had been placed prior to washing and determining SERS depth mapping images by Raman instrument as before. […]
The test system of the next series is live basil leaves. Put plainly: SERS depth mapping of pesticide and AuNPs penetration into live basil leaves (Example 3).
The mark [3] stands for this setting: 48 h exposure, surface residues washed off.

This note sets out measurements from patent US10921257B2, “Method and system of pesticide detection using SERS” (priority 2016, dated 2021).

Experimental for apple: Organic apples were carefully hand washed with ultrapure water for 3 min and air-dried before experiment to remove surface contaminants. Then a 5 μL aliquot from a 100 mg/L solution of each pesticide was pipetted onto the apple surface. After air-drying the pesticides, apple peels with ˜2.0×2.0 cm^2 area were cut from each treated apple using a sharp knife. To determine pesticide penetration with penetrative AuNPs, any interference caused by pesticide residues on the apple surface were removed by washing. Two different washing methods were investigated using either an acetic acid- or NaHCO3-containing solution. Each peel was immersed into 20 mL of either a 5% acetic acid or a 1% NaHCO3 solution for different times and gently rinsed with 200 mL of deionized water for 10 s, respectively. All washed samples were air-dried at room temperature for 10 min before being treated with AuNPs. After drying AuNPs for 1 h, SERS detection was performed on that area to evaluate washing effects. Ten discrete locations were randomly chosen on each apple peel sample and scanned. Similar samples were prepared without either washing method and were scanned as above for comparisons.
Following drying, the surface residues from each applied pesticide were washed off using either the NaHCO3 or acetic acid solution and a 5 μL aliquot of the 250 mg/L AuNPs solution was added as described above. After 1 h of drying, SERS depth mapping images were obtained using the confocal Raman instrument.
A DXR Raman microscope (Thermo Fisher Scientific, Madison, Wis., USA) with a 780 nm laser and a 20× long distance microscope objective was used in this study. Each sample was scanned from 400 to 2000 cm^−1 for a 2 s exposure time. […] Ten discrete locations were randomly chosen on each sample for analysis. For penetration studies, SERS depth mapping images were obtained using a 50 μm pinhole aperture and 1 mW laser power to control the confocal depths using a scanning depth of 300 μm. […] The step size of the depth mapping was 20 μm and one image contained 75 scanning spots. Raman images were integrated based on the characteristic peaks in the pesticide spectra using the Atlμs Function in the OMINCS software (Thermo Fisher Scientific). […] The differences among results were calculated using an analysis of variance (ANOVA) and a post hoc Duncan test with a confidence level of 95%.
Experimental for grape: as §1, §2
Experimental for harvested basil leaves: (§3) A 5 μL aliquot of the mixture was pipetted onto harvested leaves or onto the live leaves on the plant. After air drying for 30 min, SERS depth mapping images were obtained using a confocal Raman instrument as detailed below.
For the study of the pesticides penetration on harvested basil leaves, 36 intact leaves (0.2 g per leaf) were first cut off from petiole on live plants using a sharp knife and carefully rinsed as described above for live leaves. During the experiment, the stems of each harvested leaf were immersed into water to keep the leaf fresh. To study pesticide penetration into harvested leaves, the same rinsing method and pesticides penetration protocols were carried out as described above for live leaves.
For penetration studies, SERS depth mapping images were obtained using a 50 μm pinhole aperture and 3 mW laser power to control the confocal depth using a scanning depth of 300 μm. Each depth area (100 μm×300 μm) was chosen from the treated spot on the leaf distant from a gland because the gland is the cavity, not a flat surface. The step size of the depth mapping was 20 μm and one image contained 75 scanning spots. […] The differences among results were calculated using an independent sample T-test or analysis of variance (ANOVA) and a post hoc Duncan test with a confidence level of 95%.
Experimental for live basil leaves: as §3
For the study of pesticide penetration into live basil leaves, 36 intact leaves (approximately 0.2 g per leaf) were selected from six live plants as the experimental target (6 leaves per plant) and carefully rinsed with 450 mL ultrapure water for 30 s and air-dried before the experiment to remove surface contaminants like dust. After rinsing, the clean leaves were used to study of pesticide penetration. […] Some of the pesticides might penetrate into leaves from the surface during the periods. After pesticide penetrated into leaves for different time periods, ultrapure water with flow rate of 15 mL/s was utilized to gently rinse the surface of leaves (Step 2). Different rinsing times were then investigated to complete removal of each pesticide residue on the surface. After rinsing of surface pesticide residues, all leaf samples were air-dried at room temperature for 30 min. […] The video camera in the Raman microscope was used to record the position on the leaves and help to find the same area for AuNPs deposition. After AuNPs treatment for drying 30 min, SERS detection was performed on that area using the confocal Raman instrument. Each treatment was performed twice.
For penetration studies, SERS depth mapping images were obtained using a 50 μm pinhole aperture and 3 mW laser power to control the confocal depth using a scanning depth of 300 μm. Each depth area (100 μm×300 μm) was chosen from the treated spot on the leaf distant from a gland because the gland is the cavity, not a flat surface. The step size of the depth mapping was 20 μm and one image contained 75 scanning spots. Raman images were integrated based on the characteristic peaks in the pesticide spectra using the Atlμs Function in the OMINCS software (Thermo Fisher Scientific). There was one spot on each leaf and one depth area was selected from each spot. For each pesticide depth mapping experiment, there were six duplicates with six leaves coming from three different plants (2 leaves from each plant).
Pesticide penetration was investigated using both intact and damaged leaves on live plants. Damaged leaves were prepared using a sharp knife to scratch the top surface of intact leaves. Each of the damaged leaves had 20 scrapes on each leaf and the distance between each scrape is 0.2 cm.

Turning to `C/C(=N\C#N)N(C)Cc1ccc(Cl)nc1` [acetamiprid, (E)-N-[(6-chloro-3-pyridyl)methyl]-N′-cyano-N-methylethanimidamide], in the series with grape, the “Exposure time at which penetration was first apparent” value came to 30 min. The Penetration depth entry is reported as “about 75 μm” in the series with grape (setting [3]), 90 μm in the series on spinach leaves [1] (setting [3]) and roughly 140 μm in the series with apple (setting [3]). Moreover, the “Exposure time at which penetration was first observed” value in the series on apple was 30 min.

`COP(=S)(OC)SCN1C(=O)c2ccccc2C1=O` [phosmet, O,O-dimethyl S-Phthalimido Methyl Phosphorodithioate]: the “Exposure time at which penetration was first observed” value with grape amounted to 48 h. Also, the Penetration depth entry is on record as “about 20 μm” in the series on grape (setting [3]), 70 μm with spinach leaves [1] (setting [3]) and roughly 55 μm in the series with apple (setting [3]). Moreover, the “Exposure time at which pesticide was first detected” value with spinach leaves [1] worked out at 24 h; with apple, 6 h.

As for `c1ccc2[nH]c(-c3cscn3)nc2c1` [thiabendazole, 2-(4-thiazolyl)-1H-benzimidazole], the “Exposure time at which penetration was first seen” value in the series on harvested basil leaves was found to be 30 min; in the series with live basil leaves (10 mg/L, live leaves), 30 min. Further, the Penetration depth entry is “approximately 180 μm” with harvested basil leaves (48 h after exposure, surface rinsed); “about 36 μm” with grape (24 h); “about 55 μm” in the series with grape (setting [3]); 100 μm in the series on spinach leaves [1] (30 min); roughly 160 μm in the series on spinach leaves [1] (24 h); roughly 220 μm with spinach leaves [1] (setting [3]). The Penetration depth in the series with live basil leaves (10 mg/L, live leaves, 48 h after exposure, surface rinsed) is recorded as roughly 225 μm; in the series with live basil leaves (damaged (knife-scratched) leaves on live plants) it was 80 μm; with live basil leaves (intact leaves on live plants), 170 μm; in the series on live basil leaves (large (old, 45 days) leaves, 24 h exposure), 165 μm; in the series with live basil leaves (small (young, 15 days) leaves, 24 h exposure) it was 95 μm; in the series with apple (24 h) it was “about 140 μm”. In addition, the Penetration depth result with apple (setting [3]) is “approximately 160 μm”. In the series with grape, the “Exposure time at which penetration was first apparent” value was found to be 30 min. In the series with spinach leaves [2] (surface residues washed off with NaHCO3), the “Earliest time of detecting pesticide inside leaves” value is 6 h. In addition, the “Penetration depth in depth mapping images with increasing exposure time” value with spinach leaves [2] (washed) is “approximately 150 μm”. Moreover, in the series with spinach leaves [2] (washed, 2 days exposure), the “Penetration depth from scans parallel to leaf surface at different depths” value was “approximately 210 μm”. Also, the “Exposure time at which pesticide was first detected” value in the series on spinach leaves [1] worked out at 0.5 h. Also, the “Exposure time at which penetration was first observed” value in the series on apple was found to be 30 min.
